Data as given in article PMC6301270 (MedChemComm, 2018).

Test system: T.b. brucei (strain 427) bloodstream form parasites
Assay: T.b. brucei single concentration screen (10 μM)
Conditions: Trypanosoma brucei, read-out: T.b.brucei % viability (10 µM)

| SMILES | viability at 10 µM [%] |
| --- | --- |
| COc1cccc(NC(=O)c2c(NC(=O)c3cccnc3)sc3c2CCC3)c1 [MMV228911, COc1cccc(NC(=O)c2c3CCCc3sc2NC(=O)c4cccnc4)c1] | 97 |
| COc1cccc(-c2cc3c(Nc4cccnc4)nccc3[nH]2)c1 [MMV392832, COc1cccc(c1)c2cc3c(Nc4cccnc4)nccc3[nH]2] | 101 |
| CN1CCN(c2nccc3[nH]c(-c4cccc(F)c4)cc23)CC1 [MMV393144, CN1CCN(CC1)c2nccc3[nH]c(cc23)c4cccc(F)c4] | 59 |
| Cc1cc(O)nc(-n2nc(C)cc2C)n1 [MMV393995, Cc1cc(O)nc(n1)n2nc(C)cc2C] | 71 |
| CCc1nc2ccc(C(=O)NCc3ccc4c(c3)OCO4)cn2c1N(C)Cc1cccs1 [MMV407539, CCc1nc2ccc(cn2c1N(C)Cc3cccs3)C(=O)NCc4ccc5OCOc5c4] | 82 |
| CCOc1ccccc1NC(C)C(=O)Nc1cc(C(F)(F)F)ccc1N1CCOCC1 (centres unmarked) [MMV407834, CCOc1ccccc1NC(C)C(=O)Nc2cc(ccc2N3CCOCC3)C(F)(F)F] | 104 |
| CS(=O)(=O)Cc1nc2ccccc2oc1=O [MMV553002, CS(=O)(=O)CC1=Nc2ccccc2OC1=O] | 114 |
| c1ccc(-c2cc(N3CCCCC3)c3ccccc3n2)nc1 [MMV560185, C1CCN(CC1)c2cc(nc3ccccc23)c4ccccn4] | 112 |
| CCC(Sc1nc2ccccc2o1)C(=O)Nc1nnc(C)s1 (centres unmarked) [MMV611037, CCC(Sc1oc2ccccc2n1)C(=O)Nc3nnc(C)s3] | 113 |
| O=C(NCCN1CCCC1)c1cc(NCCN2CCOCC2)nc2ccc(Cl)cc12 [MMV634140, Clc1ccc2nc(cc(c2c1)C(=O)NCCN1CCCC1)NCCN1CCOCC1] | 89 |
| Cc1nc(-c2ccccn2)nc(N(C)CCc2ccccc2)c1Cl [MMV658988, CN(CCc1ccccc1)c2nc(nc(C)c2Cl)c3ccccn3] | 95 |
| Cc1nc(-c2ccccn2)nc(NCCc2ccc(S(C)(=O)=O)cc2)c1Cl [MMV658993, Cc1nc(nc(NCCc2ccc(cc2)S(=O)(=O)C)c1Cl)c3ccccn3] | 102 |
| Cc1nc(-c2ccccn2)nc(N2CCC(Cc3ccccc3)C2)c1Cl (centres unmarked) [MMV659004, Cc1nc(nc(N2CCC(Cc3ccccc3)C2)c1Cl)c4ccccn4] | 109 |
| FC(F)(F)c1cc(NCCc2ccccc2)nc(-c2ccccn2)n1 [MMV659010, FC(F)(F)c1cc(NCCc2ccccc2)nc(n1)c3ccccn3] | 82 |
| Brc1cncc(-c2cc(NCCCn3ccnc3)nc(-c3ccccc3)n2)c1 [MMV661713, Brc1cncc(c1)c2cc(NCCCn3ccnc3)nc(n2)c4ccccc4] | 98 |
| Clc1cccc(C(c2ccc(CN3CCNCC3)cc2)n2ccnc2)c1 (centres unmarked) [MMV663250, Clc1cccc(c1)C(c2ccc(CN3CCNCC3)cc2)n4ccnc4] | 75 |
| O=C(NCCN1CCCC1)c1cc(NCCCCN2CCC(F)(F)CC2)nc2ccc(Cl)cc12 [MMV667494, FC1(F)CCN(CCCCNc2cc(c3cc(ccc3n2)Cl)C(=O)NCCN2CCCC2)CC1] | 56 |
| Nc1ncc(-c2ccc(C(F)(F)F)nc2)cc1-c1ccc(C(F)(F)F)nc1 [MMV668727, Nc1ncc(cc1c2ccc(nc2)C(F)(F)F)c3ccc(nc3)C(F)(F)F] | 75 |
| Cc1[nH]c2cc(F)cc(F)c2c(=O)c1-c1ccc(Oc2ccc(OC(F)(F)F)cc2)cc1 [MMV671636, CC1=C(C(=O)c2c(F)cc(F)cc2N1)c3ccc(Oc4ccc(OC(F)(F)F)cc4)cc3] | 101 |

| SMILES | viability at 10 µM [%] |
| --- | --- |
| CC(C)(C)c1ccc(N[C@@H]2CCCC[C@H]2NC(=O)c2ccco2)cc1 [MMV675969, CC(C)(C)c1ccc(N[C@@H]2CCCC[C@H]2NC(=O)c3occc3)cc1] | 114 |
| COc1ccc(-c2nn(C(C)C)c3ncnc(N)c23)cc1OC [MMV675993, COc1ccc(cc1OC)c2nn(C(C)C)c3ncnc(N)c23] | 38 |
| Clc1ccc(-n2cc(COc3ccnc4ccccc34)nn2)cc1 [MMV675994, Clc1ccc(cc1)n2cc(COc3ccnc4ccccc34)nn2] | 91 |
| COc1ccc(N(CCc2cccc(C)n2)C(C)=O)cc1 [MMV675995, COc1ccc(cc1)N(CCc2cccc(C)n2)C(=O)C] | 108 |
| COc1ccc(N(CCc2cccc(C)n2)C(=O)C2CCCCC2)cc1 [MMV675996, COc1ccc(cc1)N(CCc2cccc(C)n2)C(=O)C3CCCCC3] | 107 |
| N#CCN(CCCCN1CCN(c2ccc(F)cc2)CC1)C(=O)OCc1ccccc1 [MMV675997, Fc1ccc(cc1)N2CCN(CCCCN(CC#N)C(=O)OCc3ccccc3)CC2] | 97 |
| O=C(Nc1c(O)cccc1-c1nc2c(C(=O)O)cccc2o1)c1cc(-c2ccccc2)on1 [MMV676008, OC(=O)c1cccc2oc(nc12)c3cccc(O)c3NC(=O)c4cc(on4)c5ccccc5] | 110 |
| Clc1ccc(Cl)c(CO[C@H]2CCCC[C@@H]2n2ccnc2)c1 [MMV676048, Clc1ccc(Cl)c(CO[C@H]2CCCC[C@@H]2n3ccnc3)c1] | 104 |
| CS(=O)(=O)N1CCC(Cn2nc(Cc3cccc4ccccc34)c3c(N)ncnc32)CC1 [MMV676050, CS(=O)(=O)N1CCC(Cn2nc(Cc3cccc4ccccc34)c5c(N)ncnc25)CC1] | 117 |
| COc1cc(NC(=O)Cc2nn(C)c(=O)c3ccccc23)ccc1Cl [MMV676053, COc1cc(NC(=O)CC2=NN(C)C(=O)c3ccccc23)ccc1Cl] | 100 |
| CC(C)(C)OC(=O)N1CCN(c2cc(-c3ccc(Oc4ccccc4)cc3)n[nH]2)CC1 [MMV676057, CC(C)(C)OC(=O)N1CCN(CC1)c2cc(n[nH]2)c3ccc(Oc4ccccc4)cc3] | 21 |
| CCCCc1ccc(NC(=O)Nc2ccc(O[C@H]3CCCC[C@@H]3N(C)c3ccccc3)c(F)c2)cc1 [MMV676063, CCCCc1ccc(NC(=O)Nc2ccc(O[C@H]3CCCC[C@@H]3N(C)c4ccccc4)c(F)c2)cc1] | 91 |
| CC(=O)N(CCN(C(=O)c1ccc(F)cc1)c1ccccc1)c1ccccc1 [MMV676064, CC(=O)N(CCN(C(=O)c1ccc(F)cc1)c2ccccc2)c3ccccc3] | 100 |
| Clc1cccc(CO[C@H]2CCc3ccccc3[C@@H]2n2ccnn2)c1 [MMV676159, Clc1cccc(CO[C@H]2CCc3ccccc3[C@@H]2n4ccnn4)c1] | 96 |
| c1ccc(Oc2ccc(-c3cc(CN4CCOCC4)[nH]n3)cc2)cc1 [MMV676161, C(N1CCOCC1)c2cc(n[nH]2)c3ccc(Oc4ccccc4)cc3] | 43 |
| O=C(Nc1ccccc1-c1nc2c(C(=O)O)cccc2o1)c1ccccc1 [MMV676162, OC(=O)c1cccc2oc(nc12)c3ccccc3NC(=O)c4ccccc4] | 101 |
| Nc1ncnc2c1c(Cc1cccc3ccccc13)nn2CC1CCNCC1 [MMV676182, Nc1ncnc2c1c(Cc3cccc4ccccc34)nn2CC5CCNCC5] | 98 |
| COC(=O)c1cccc2oc(-c3cccc(OC)c3NC(=O)c3cc(-c4ccccc4)on3)nc12 [MMV676186, COC(=O)c1cccc2oc(nc12)c3cccc(OC)c3NC(=O)c4cc(on4)c5ccccc5] | 90 |
| CC(C)C(Oc1cccc2ccccc12)C(=O)O (centres unmarked) [MMV676191, CC(C)C(Oc1cccc2ccccc12)C(=O)O] | 103 |

| SMILES | viability at 10 µM [%] |
| --- | --- |
| O=C(c1ccc(F)cc1)N(CCNc1ccccc1)c1ccccc1 [MMV676204, Fc1ccc(cc1)C(=O)N(CCNc2ccccc2)c3ccccc3] | 97 |
| CN1CCN(c2nccc3nc(-c4ccc(F)c(F)c4)[nH]c23)CC1 [MMV676260, CN1CCN(CC1)c2nccc3nc([nH]c23)c4ccc(F)c(F)c4] | 49 |
| C[C@H](C(N)=O)N1CCCC[C@H]1c1ccc(OCc2cccc(F)c2)cc1 [MMV676269, C[C@@H](N1CCCC[C@H]1c2ccc(OCc3cccc(F)c3)cc2)C(=O)N] | 92 |
| C[C@H](C(N)=O)N1CCCC[C@@H]1c1ccc(OCc2cccc(F)c2)cc1 [MMV676270, C[C@@H](N1CCCC[C@@H]1c2ccc(OCc3cccc(F)c3)cc2)C(=O)N] | 97 |
| Cc1cnc(CCNC(=O)c2cc(-c3ccc(Cl)cc3)cs2)[nH]1 [MMV676350, Cc1cnc(CCNC(=O)c2cc(cs2)c3ccc(Cl)cc3)[nH]1] | 47 |
| Nc1ncc(Br)cc1-c1nc2cc(Cl)cnc2[nH]1 [MMV676358, Nc1ncc(Br)cc1c2nc3cc(Cl)cnc3[nH]2] | 98 |
| Brc1c(-c2ccc3c(c2)OCO3)nc2ncccn12 [MMV676377, Brc1c(nc2ncccn12)c3ccc4OCOc4c3] | 96 |
| COc1cccc(OCC(=O)c2ccc(Br)cc2)c1 [MMV676379, COc1cccc(OCC(=O)c2ccc(Br)cc2)c1] | 104 |
| CC(=O)Nc1ccc(NC(=O)c2cc(-c3cc(Cl)ccc3O)[nH]n2)cc1 [MMV676380, CC(=O)Nc1ccc(NC(=O)c2cc([nH]n2)c3cc(Cl)ccc3O)cc1] | 78 |
| Cn1ncc2c(N3CCOCC3)nc(NCCc3c[nH]c4ccccc34)nc21 [MMV676382, Cn1ncc2c(nc(NCCc3c[nH]c4ccccc34)nc12)N1CCOCC1] | 93 |
| CCC(Sc1nc2ccccc2o1)C(=O)Nc1nccs1 (centres unmarked) [MMV676383, CCC(Sc1oc2ccccc2n1)C(=O)Nc3nccs3] | 86 |
| N#Cc1nc(-c2ccccc2F)oc1NCCc1ccccc1 [MMV676384, Fc1ccccc1c2oc(NCCc3ccccc3)c(n2)C#N] | 107 |
| Cc1cccc(Cn2ccc(NC(=O)c3ccc4c(c3)OCO4)n2)c1 [MMV676386, Cc1cccc(Cn2ccc(NC(=O)c3ccc4OCOc4c3)n2)c1] | 95 |
| COc1cccc(-n2nnnc2S(=O)(=O)Cc2ccccc2)c1 [MMV676388, COc1cccc(c1)n2nnnc2S(=O)(=O)Cc3ccccc3] | 87 |
| O=C(c1[nH]nc2c1CCCC2)N1CCN(Cc2ccc3c(c2)OCO3)CC1 [MMV676389, O=C(N1CCN(Cc2ccc3OCOc3c2)CC1)c4[nH]nc5CCCCc45] | 95 |
| O=C(Nc1cccnc1)c1c(O)c2cccc3c2n(c1=O)CC3 [MMV676395, OC1=C(C(=O)Nc2cccnc2)C(=O)N3CCc4cccc1c34] | 106 |
| CCS(=O)(=O)N(Cc1ccco1)Cc1cc2ccc(C)cc2nc1O [MMV676398, CCS(=O)(=O)N(Cc1occc1)Cc2cc3ccc(C)cc3nc2O] | 86 |
| c1coc(CNc2nc(N3CCCCC3)nc3ccccc23)c1 [MMV676401, C(Nc1nc(nc2ccccc12)N3CCCCC3)c4occc4] | 58 |
